In article PMC9293634, “Conformational flexibility in carbapenem hydrolysis drives substrate specificity of the class D carbapenemase OXA-24/40” (The Journal of Biological Chemistry, 2022):

What was measured:
OXA-24/40 [1] = target: T1, OXA-24/40 (Acinetobacter baumannii, UniProt Q8RLA6, K84D); test: X-ray crystal structure ([…] Å), intact β-lactam; assay type: binding
T1 construct: gene blaOXA-33

OXA-24/40 [2] = target: T1, OXA-24/40; test: X-ray crystal structure of acyl-enzyme ([…] Å); assay type: binding

T1 sequence (Q8RLA6 32-275 K84D): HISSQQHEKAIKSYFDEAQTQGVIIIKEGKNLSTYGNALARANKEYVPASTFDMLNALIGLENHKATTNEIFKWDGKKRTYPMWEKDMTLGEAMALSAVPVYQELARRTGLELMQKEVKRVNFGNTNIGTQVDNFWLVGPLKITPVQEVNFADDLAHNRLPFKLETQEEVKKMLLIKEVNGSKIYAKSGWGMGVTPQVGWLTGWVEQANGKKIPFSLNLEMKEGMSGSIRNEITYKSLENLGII

Row | Compound | X-ray crystal structure (2.58 Å), intact β-lactam (OXA-24/40 [1]) | X-ray crystal structure of acyl-enzyme (2.28 Å) (OXA-24/40 [2])
1 | C[C@@H](O)[C@H]1C(=O)N2C(C(=O)O)=C(S[C@@H]3CN[C@H](C(=O)Nc4cccc(C(=O)O)c4)C3)[C@H](C)[C@H]12 [ertapenem] | In the K84D–ertapenem structure, ertapenem is bound as an intact β-lactam, yet in an unproductive binding mode | –
2 | C[C@@H](O)[C@H]1C(=O)N2C(C(=O)O)=C(SCCN=CN)C[C@H]12 [imipenem] | – | A predominant conformation for imipenem was observed in the K84D complex
